# Key:
# [1] = test system: MrgprX1 or MrgprA3; parameters: method as in PMID 16510108, PMID 32536619; conditions: read-out: IC50 (potency as antagonist); cited from earlier work
# [2] = test system: CQ-induced itch; parameters: method as in PMID 16510108, PMID 32536619, PMID 35066892; conditions: cited from earlier work
# [3] = test system: histamine-induced itch; parameters: method as in PMID 16510108, PMID 32536619, PMID 35066892; conditions: cited from earlier work
# [4] = target: T1, PAR2 (Homo sapiens, UniProt P55085); test: PAR2-AP-induced activation of PAR2 in HT29 cells (calcium); assay type: cell-based; conditions: 30 μM compound, 10 min prior to 30 μM PAR2-AP
# T1 construct: endogenous in cells; host or cells: HT29
# T1 sequence (P55085 26-397): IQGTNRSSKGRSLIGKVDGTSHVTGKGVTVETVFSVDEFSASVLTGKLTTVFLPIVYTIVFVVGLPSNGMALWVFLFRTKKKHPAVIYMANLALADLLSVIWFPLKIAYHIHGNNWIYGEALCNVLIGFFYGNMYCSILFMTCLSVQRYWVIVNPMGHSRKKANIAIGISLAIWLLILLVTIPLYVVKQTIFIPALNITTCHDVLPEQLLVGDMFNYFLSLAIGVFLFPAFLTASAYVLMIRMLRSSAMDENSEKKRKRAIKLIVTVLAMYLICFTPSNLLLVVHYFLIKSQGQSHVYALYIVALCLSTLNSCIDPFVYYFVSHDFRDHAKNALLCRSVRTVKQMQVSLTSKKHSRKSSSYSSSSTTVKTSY
# Method: (§1) To investigate the effect of berbamine on other pruritogenic GPCRs, we observed the effect of berbamine on histamine H1 receptor (H1R), histamine H4 receptor (H4R), MrgprC11, MrgprX4, PAR2, and TGR5.
# (§2) Figure 3 Effects of berbamine on the activity of other pruritogenic GPCRs: (A,B) Effect of berbamine on histamine 1 receptor (H1R) and histamine 4 receptor (H4R). H1R- and H4R-expressing HEK293T cells were pretreated with 30 μM BBM for 10 min prior to 100 μM histamine treatment. […] (C) Effect of berbamine on PAR2. HT29 cells were pretreated with BBM for 10 min prior to 30 μM PAR2-AP treatment. […] (D) Effect of berbamine on MrgprC11. MrgprC11-expressing HEK293T cells were pretreated with BBM for 10 min prior to 100 μM […] treatment. (E) Effect of berbamine on MrgprX4. MrgprX4-expressing HEK293T cells were pretreated with BBM for 10 min prior to 80 μM DCA treatment. (F) Effect of berbamine on TGR5. TGR5 activity was measured using a YFP fluorescence quenching assay. CHO-K1 cells coexpressing TGR5 and a halide sensor YFP were pretreated with BBM and 80 μM DCA for 10 min prior to I^- treatment. Results were summarized as means ± S.E. (n = 6). NTC, nontransfected cells.
# (§3) Intracellular calcium levels were measured using a Fluo-4 NW calcium assay kit (Invitrogen, Carlsbad, CA) as per the manufacturer’s protocol in HEK293T and HT29 cells. […]
# [5] = test system: ERK1/2 phosphorylation through MrgprX1; test: Immunoblot of ERK1/2 phosphorylation in HEK293T cells expressing MrgprX1; assay type: cell-based, human; conditions: HEK-MrgprX1 cells
# [6] = test system: ERK1/2 phosphorylation through MrgprA3; test: Immunoblot of ERK1/2 phosphorylation in HEK293T cells expressing MrgprA3; assay type: cell-based, mouse; conditions: HEK-MrgprA3 cells
# [7] = target: T2, MrgprA3 (Mus musculus, UniProt Q91WW3); test: Intracellular calcium measurement in HEK293T cells expressing mouse MrgprA3; assay type: cell-based; conditions: HEK293T cells overexpressing MrgprA3; read-out: EC50 of MrgprA3 activation
# T2 construct: expressed in transfected cells; host or cells: HEK293T
# T2 sequence (Q91WW3 1-302): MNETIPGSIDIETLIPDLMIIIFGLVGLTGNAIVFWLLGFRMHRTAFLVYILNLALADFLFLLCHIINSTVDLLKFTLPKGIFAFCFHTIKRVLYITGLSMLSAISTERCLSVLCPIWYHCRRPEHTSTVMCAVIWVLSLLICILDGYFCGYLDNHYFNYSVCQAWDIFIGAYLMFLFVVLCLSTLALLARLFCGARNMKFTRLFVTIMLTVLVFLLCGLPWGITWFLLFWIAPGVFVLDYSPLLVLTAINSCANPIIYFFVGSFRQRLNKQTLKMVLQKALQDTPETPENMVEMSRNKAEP
# Method: MRGPRA3 and MRGPRC11 are mouse orthologs of human MRGPRX1, and MrgprA3 is also activated by CQ, resulting in CQ-induced pruritus. To investigate the inhibitory effect of berbamine on MrgprA3, we established HEK293T cells overexpressing MrgprA3. […] We further investigated whether berbamine inhibited CQ-induced ERK1/2 phosphorylation in HEK-MrgprA3 cells. Strong and significant ERK1/2 phosphorylation was observed following CQ application, and ERK1/2 phosphorylation peaked 5 min after CQ treatment (Figure 6A,B).
# Figure 5 Effect of berbamine on CQ-induced activation of MrgprA3: (A) Intracellular calcium levels were measured in HEK293T cells expressing mouse MrgprA3. Cells were treated with indicated concentrations of CQ. (B) Summary of dose–response (mean ± S.E., n = 6). (C) Cells were pretreated with indicated concentrations of berbamine for 10 min prior to 300 μM CQ treatment. (D) Summary of dose-response (mean ± S.E., n = 6). (E) Representative traces of intracellular calcium responses to BAM8−22 in HEK293T cells expressing MrgprC11. […]
# (§4) Intracellular calcium levels were measured using a Fluo-4 NW calcium assay kit (Invitrogen, Carlsbad, CA) as per the manufacturer’s protocol in HEK293T and HT29 cells. […] After 1 h of incubation, Fluo-4 fluorescence was recorded with a FLUOstar Omega microplate reader equipped with syringe pumps and custom Fluo-4 excitation/emission filters (485/538 nm). […]
# [8] = target: T3, MrgprX1 (Homo sapiens, UniProt Q96LB2); test: Intracellular calcium measurement (Fluo-4 NW) in HEK293T cells expressing MrgprX1; assay type: cell-based
# T3 construct: expressed in transfected cells
# T3 sequence (Q96LB2 whole entry): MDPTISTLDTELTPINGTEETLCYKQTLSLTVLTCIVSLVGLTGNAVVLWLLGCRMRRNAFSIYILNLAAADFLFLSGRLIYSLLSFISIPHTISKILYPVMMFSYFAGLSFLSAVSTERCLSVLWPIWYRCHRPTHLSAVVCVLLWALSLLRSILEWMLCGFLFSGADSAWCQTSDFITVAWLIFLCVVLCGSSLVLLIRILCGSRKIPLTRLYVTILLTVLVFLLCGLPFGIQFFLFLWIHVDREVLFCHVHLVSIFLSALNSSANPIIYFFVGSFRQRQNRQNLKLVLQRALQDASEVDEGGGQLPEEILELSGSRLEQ
# Method: To identify novel antagonists of MrgprX1, a cell-based screening assay was established. […] Cells were treated with the indicated concentrations of CQ where the arrow indicates. (B) Summary of dose-response (mean ± S.E., n = 6). (C) Representative Fluo−4 fluorescence traces of MrgprX1 antagonist screening. Cells were treated with 30 μM of the test compounds for 10 min prior to treatment with 300 μM CQ.
# Figure 2 Effect of berbamine and closantel on CQ- and ionomycin-induced increases in intracellular calcium levels: (A,B) Intracellular calcium levels were measured using Fluo−4 NW in HEK293T cells expressing MrgprX1. The cells were pretreated with the indicated concentrations of berbamine (BBM) and closantel (CLS) for 10 min prior to treatment with 300 μM CQ. (C) Summary of dose-response (mean ± S.E., n = 6). […] The cells were pretreated with the indicated concentrations of BBM and CLS for 10 min before treatment with ionomycin. (F) Summary of dose–response (mean ± S.E., n = 6).
# Intracellular calcium levels were measured using a Fluo-4 NW calcium assay kit (Invitrogen, Carlsbad, CA) as per the manufacturer’s protocol in HEK293T and HT29 cells. Briefly, the cells were plated in a 96-well black-walled plate and incubated with 100 μL of assay buffer including Fluo-4 NW. […] Intracellular calcium increase was induced with the application of the indicated agonist. All modulators were dissolved in DMSO, and cells were treated with a final concentration of 1% DMSO.
# [9] = test system: CQ-resistant strain of P. falciparum; parameters: method as in doi:10.1002/ddr.430300405; conditions: in vitro, compound alone; read-out: IC50 antimalaria effect, CQ-resistant strain; cited from earlier work
# [10] = target: T4, histamine H1 receptor (H1R) (Homo sapiens, UniProt P35367); test: Histamine-induced activation of H1R in H1R-expressing HEK293T cells (calcium); assay type: cell-based; conditions: 30 μM compound, 10 min prior to 100 μM histamine
# T4 construct: expressed in transfected cells; host or cells: HEK293T
# T4 sequence (P35367 whole entry, species assumed): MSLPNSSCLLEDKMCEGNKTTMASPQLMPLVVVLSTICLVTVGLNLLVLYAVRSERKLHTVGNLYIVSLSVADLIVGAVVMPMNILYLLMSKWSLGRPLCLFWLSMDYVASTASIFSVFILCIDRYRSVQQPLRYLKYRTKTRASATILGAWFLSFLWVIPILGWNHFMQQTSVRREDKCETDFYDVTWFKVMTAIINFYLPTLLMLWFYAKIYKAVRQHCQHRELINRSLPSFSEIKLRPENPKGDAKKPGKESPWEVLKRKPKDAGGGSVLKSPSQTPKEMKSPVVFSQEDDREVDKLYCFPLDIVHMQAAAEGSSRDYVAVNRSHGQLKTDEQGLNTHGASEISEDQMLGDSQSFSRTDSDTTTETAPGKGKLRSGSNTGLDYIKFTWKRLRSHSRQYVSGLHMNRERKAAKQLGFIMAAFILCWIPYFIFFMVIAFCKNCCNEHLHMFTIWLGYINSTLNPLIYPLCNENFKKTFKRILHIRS
# Method: as §1, §2, §3
# [11] = test system: HEK293T cells; test: Ionomycin-induced increase in intracellular calcium levels in HEK293T cells; assay type: cell-based; conditions: 10 μM ionomycin, 10 min pretreatment
# Method: To investigate whether berbamine and closantel affect calcium signaling pathways, we observed the effects of berbamine and closantel on CQ- and ionomycin-induced increases in intracellular calcium concentrations in HEK-MrgprX1 and HEK293T cells, respectively.
# Figure 2 Effect of berbamine and closantel on CQ- and ionomycin-induced increases in intracellular calcium levels: (A,B) Intracellular calcium levels were measured using Fluo−4 NW in HEK293T cells expressing MrgprX1. The cells were pretreated with the indicated concentrations of berbamine (BBM) and closantel (CLS) for 10 min prior to treatment with 300 μM CQ. (C) Summary of dose-response (mean ± S.E., n = 6). (D,E) Intracellular calcium levels were increased with 10 μM ionomycin in HEK239T cells. The cells were pretreated with the indicated concentrations of BBM and CLS for 10 min before treatment with ionomycin. (F) Summary of dose–response (mean ± S.E., n = 6).
# as §4
smiles,measurement,setting,value
CC=CC(=O)N(CC)c1ccccc1C (mixture of isomers) [crotamiton],IC50,[1],326 µM
same,effect on CQ-induced itch,[2],inhibits
same,effect on histamine-induced itch,[3],inhibits
"O=C1O[C@H]2[C@@H]3OC(=O)c4cc(O)c(O)c(O)c4-c4c(O)c(O)c5oc(=O)c6c(c(O)c(O)c7oc(=O)c4c5c76)-c4c(cc(O)c(O)c4O)C(=O)OC[C@H]3OC(O)[C@@H]2OC(=O)c2cc(O)c(O)c(O)c2-c2c1cc(O)c(O)c2O (mixture of isomers) [punicalagin, reference compound]",effect on PAR2-AP-induced activation of PAR2,[4],significantly blocked
"CCN(CC)CCCC(C)Nc1ccnc2cc(Cl)ccc12 (stereo not shown) [CQ, Chloroquine]",time of peak ERK1/2 phosphorylation after treatment,[5],10 min
same,time of peak ERK1/2 phosphorylation after treatment,[6],5 min
same,EC50,[7],234 µM
same,EC50,"[8]; HEK-MrgprX1 cells, Fluo-4, read-out: EC50 of increase in intracellular calcium levels (MrgprX1 activation)",96 µM
same,IC50,[9],203 ± 70.7 nM
"CN1CCC(=C2c3ccccc3CCn3c(C=O)cnc32)CC1 [alcaftadine, reference compound]",effect on histamine-induced activation of H1R,[10],significantly blocked
"Cc1cc(C(C#N)c2ccc(Cl)cc2)c(Cl)cc1NC(=O)c1cc(I)cc(I)c1O (stereo not shown) [closantel, reference compound]",effect on ionomycin-induced increase in intracellular calcium levels,[11],inhibited it in a dose-dependent manner
same,inhibition at 30 µM,"[8]; HEK-293T, read-out: inhibition of the CQ-induced activation of MrgprX1 (screening)",> 90%
same,IC50,"[8]; pretreated 10 min prior to 300 μM CQ, read-out: IC50 of inhibition of CQ-induced MrgprX1 activation",3.6 µM

# From PMC9698483, “Berbamine Reduces Chloroquine-Induced Itch in Mice through Inhibition of MrgprX1” (International Journal of Molecular Sciences, 2022)
